# In US20140154717A1, “METHOD FOR DETECTING CANCER CELL USING FLUORESCENTLY LABELED L-GLUCOSE DERIVATIVE, AND CANCER CELL-IMAGING AGENT COMPRISING FLUORESCENTLY LABELED L-GLUCOSE DERIVATIVE” (priority 2011, published 2014):
# “Also recorded” adds a separate entry of the source.
# What was measured:
# [1] = tested on: acutely dissociated neurons; assay: Confocal imaging of 2-NBDLM+2-TRLG mixture in acutely dissociated neurons of substantia nigra pars reticulata; format: cell-based, mouse
# Experimental: NaCl 150 mM, KCl 5 mM, MgCl2 1 mM, CaCl2 2 mM, HEPES 10 mM, pH was adjusted to 7.4 by 1M Tris(2-amino-2-hydroxymethyl-1,3-propanediol) solution. The glucose concentration was 10 mM. For the purpose of inhibiting entrance and elimination of fluorescently labeled mannose via a gap junction/hemichannel, 0.1 mM Carbenoxolone (SIGMA #C4790) was added.
# NaCl 124 mM, NaHCO3 26 mM, KCl 5 mM, KH2PO4 1.24 mM, CaCl2 2.4 mM, MgSO4.7H2O 1.3 mM, Glucose 10 mM, adjusted to pH7.4 by 95% O2-5% CO2 aeration.
# A solution prepared by dissolving 5 mg of poly-L-lysine hydrobromide (SIGMA P6282) in 50 mL of 0.15 M boric acid (adjusted to pH 8.4 with […]) was stocked and refrigerated. This stock solution was diluted at 1/500 to 1/1000 with 0.15 M boric acid, and a cover slip (13 mm×22 mm, Matsunami No. 0 glass) was immersed in the diluted solution and allowed to fix at room temperature for 20 minutes, then, rinsed with distilled water and naturally dried.
# Since 2-NBDLM is a stereoisomer of 2-NBDLG and both compounds have the same molecular weight, these compounds were prepared by basically the same method as for preparation of 2-NBDLG liquid and 2-NBDLG+2-TRLG mixture described in the prior publication WO2010/016587 of the present inventors. The concentration of a solution for the administration was as follows. The whole quantity of a 0.5 mg vial was dissolved in 14.6 mL of a HEPES solution for image acquisition to give a 2-NBDLM solution having a final concentration of 100 μM. The dissolving method was carried out similarly to that for preparation of a 2-NBDLG solution in Example 3.
# Acutely dissociated neuronal cells were prepared as described below according to the same method as described in the prior publication WO2010/016587 of the present inventors.
# Postnatal 13 to 17-day old (juvenile stage) C57BL/6J mice were anesthetized deeply with urethane (i.p. 1.6 g/kg), decapitated according to an ordinary method, then, brain was taken out while pouring a cold Ringer's solution (0° C.) for dissociation, and placed on an ice-cold petri dish and immediately trimmed, then, coronally sectioned brain slices having a thickness of 400 or 500 μm were prepared by a linear slicer (Dosaka Pro7) in a cold Ringer's solution (0° C.). Then, the slice was allowed to restore for 1 hour at room temperature in a chamber (Acrylic incubation chamber manufactured by Harvard Apparatus) containing the above-described Ringer's solution circulating therein through which 95% O2-5% CO2 had been aerated.
# The brain slice was immersed in an enzyme solution (31° C.; kept at pH7.4 by aeration with 95% O2-5% CO2) prepared by dissolving a proteolytic enzyme Pronase (10 mg/60 mL) in the above-described Ringer's solution and enzymatically treated. After predetermined period, the enzymatic reaction was stopped by immediately immersing the brain slice in 50-100 mL of a 10 mM glucose-containing HEPES solution at room temperature.
# A 60 or 100 mm plastic dish having a silicon plate attached to the bottom was filled with a 10 mM glucose-containing HEPES solution (room temperature, obtained by removing Carbenoxolon from a HEPES solution for confocal image acquisition), and the above-described brain slice was immersed in the solution. Two 27 gauge syringe needles were used to immobilize the brain slice, and left and right mesencephalic substantia nigra pars reticulata were punched out under a microscope with a 18 gauge syringe needle having a tip deformed into an ellipsoidal shape, and preserved at room temperature in the above-described HEPES solution (35 mm culture dish).
# Neurons were dissociated by trituration with glass pipettes adjusted to have various point diameters, and allowed to adhere to a glass cover slip coated with poly-L-lysine.
# Administration of a mixture was carried out in the same manner as the method of administration to MIN6 cells described in Example 3 (4) to (6).
# [2] = Maximum excitation and fluorescence wavelength; format: physicochemical
# tumor cells (C6 glioma) = assay: In vivo fluorescent imaging using C6 tumor model mice (rat glioma C6 cells transplanted subcutaneously in nude mice); parameters: species or system mouse
# Experimental: C6 cells were prepared according to an ordinary method so that the cell number was 2×10^7 cells/mL.
# C6 cells were seeded on a 10 cm petri dish, allowed to stand still in a CO2 incubator, and cultured at 37° C. The culture medium was exchanged once every two days.
# 1 g/L glucose-containing Dulbecco's modified Eagle's Medium (DMEM) (Nacalai No. 08456-65), to which Fetal Bovine Serum (Equitech-Bio SFBM) was added so that the final concentration was 10% and penicillin-streptomycin (Nacalai No. 26253-84) was added so that the final concentration was 1%, was used.
# 5 to 6-week old athymic nude mice (BALB/cAJcl-nu/nu) were transplanted with 50 μL of a cell suspension adjusted to 2×10^7 cells/mL subcutaneously around the root of right hind paw, under isoflurane anesthesia. The transplanted tumor cells were observed until growing to about 200 to 300 mm^3, and used in vivo fluorescent imaging.
# C6 tumor model mice were allowed to stand still in an in vivo fluorescence imaging apparatus IVIS (registered trademark) Kinetics (Caliper Life sciences) under isoflurane anesthesia and autofluorescence of the mouse skin was measured, and subsequently, 400 nmol (100 μL) of 2-NBDLG or 2-NBDG dissolved in physiological saline was administered from the tail vein over a period of 30 seconds, and measurement of the fluorescence imaging was started again from one minute after starting administration. The in vivo fluorescence imaging was measured at an excitation wavelength of 465 nm using a GFP filter (transmittable fluorescence wavelength: 515-575 nm). The measurement was conducted for 45 minutes, and images were taken every one minute during the initial 20 minute and every 5 minutes from 20 to 45 minutes, obtaining 25 images in total. The accumulated values (fluorescence value) of 2-NBDLG and 2-NBDG in the interested area were obtained by subtracting the autofluorescence images from the 25 images taken after administration of 2-NBDLG or 2-NBDG.
# A vial of 0.5 mg of 2-NBDLG or 2-NBDG was dissolved in 400 μL of physiological saline directly before the experiment, to prepare a solution having a final concentration of 400 nmol/100 μL.
# [3] = tested on: mouse insulinoma cells (MIN6); assay: Uptake into MIN6 cells with or without inhibitors, fluorescence microplate reader (Flex Station); format: cell-based; details: 200 μM, 5 minutes
# Experimental: A difference in the uptake of 2-NBDLG (200 μM) and 2-NBDG (200 μM) into mouse insulinoma cells (MIN6) each applied for 5 minutes was analyzed quantitatively by a fluorescence microplate reader Flex Station (manufactured by Molecular Devices Corporation) in the condition whether or not various inhibitors are present. The well used for measurement was a 96-well clear bottomed well plate μ CLEAR-PLATE (Greiner bio-one, BLACK, 96 well, #655090) having longitudinally […] to 12 twelve columns, and MIN6 cell suspension prepared at a proportion of 6×10^5 cells/mL was seeded uniformly into wells from line B to line G at the third column and the fifth column each in an amount of 15 μL. For medium exchange, the half quantity was exchanged every two days in 0 to 4 DIV (days in vitro), and from 5 DIV or later, exchanged every day, and on days 10 to 13 (10 to 13 DIV), the cells were subjected to an experiment. Line A and line H were used as a control for checking correct washout, without seeding cells. In the fourth column, cells were not present, and wells in this column were used as a blank containing only Krebs Ringer buffer solution (KRB, containing 0.1 mM gap junction inhibitor carbenoxolone and 5.6 mM glucose). Evaluation was done in a way that 2-NBDLG or 2-NBDG was charged in each tube of a 8-strip PCR tube, and sucked using a 8-channel pipette and dropped simultaneously into wells. In this way, administration to wells for 2-NBDLG and to wells for 2-NBDG can be done simultaneously, making reliable evaluation possible. As described above, cells are present in 12 wells in the third and the fifth two columns, and these were divide into 4 groups each having 3 wells according to a difference either 2-NBDLG or 2-NBDG and whether an inhibitor is present or absent. Specifically, when checking the effect by the presence or absence of a GLUT inhibitor Cytochalasin B (10 μM) on the uptake of 2-NBDLG (200 μM) and 2-NBDG (200 μM), first, in wells, which are planned to be measured in the presence of Cytochalasin B, Cytochalasin B was added 5 minutes prior to the administration of the fluorescently labeled glucose derivative. Before administration of a fluorescently labeled glucose derivative, the autofluorescence was measured in each well. The measurement was done with Flex Station in Well Scan Mode and in the Bottom Read position at Ex 470 nm, Em 540 nm, Cut off 495 nm, Averaging 3, and Photomultiplier sensitivity: high. In Well Scan Mode of the fluorescence microplate reader Flex Station, one well was divided into nine observation areas and these are measured independently. The presence of approximately 5000 cells in each of 9-divided areas was separately confirmed by Z section measurement of a realtime deconvolution microscope. 2-NBDG and 2-NBDLG were administered with or without Cytochalasin B (37° C., 5 minutes), and after cessation of administration, an operation of adding 250 μL of a KRB solution containing no fluorescently labeled glucose into 50 μL of a solution in a well was repeated 7 times while measuring with a stopwatch, thereby performing washout until the fluorescence intensities of wells in line A and line H set as a control group became equal to the fluorescence intensity of the blank well containing no cell. This process required 7 minutes, and even if cells having broken plasma membrane condition are brought into contact with 2-NBDG and 2-NBDLG, and even if these compounds are once taken up into the cell, these compounds are already eliminated out of the cell and are washed away in measurement, therefore, contribution to an increase in the fluorescence intensity in the whole observation area was judged to be in an ignorable level. This was supported by a separate pharmacological inhibition experiment in which the increase in the fluorescence intensity nearly disappears in the presence of an inhibitor. The above-described method was carried out similarly in the case of other inhibitors. […]
# [4] = 100 μM 2-NBDLM+20 μM 2-TRLG for 5 minutes
compound,measurement,setting,value
"O=[N+]([O-])c1ccc(NC2C(O)OC(CO)[C@H](O)C2O)c2nonc12 (stereo partly drawn) [2-NBDLM, 2-Deoxy-2-[N-(7-nitrobenz-2-oxa-1,3-diazol-4-yl)amino]-L-mannose]","fluorescence in degraded cells, 10 minutes after cessation of administration",[1]; 100 μM 2-NBDLM+20 μM 2-TRLG,already decreased significantly
same,"fluorescence in healthy neuron, 10 minutes after cessation of administration",[1]; 100 μM 2-NBDLM+20 μM 2-TRLG,preserved in the cell
same,"fluorescence in healthy neuron, 22 minutes after cessation of administration",[1]; 100 μM 2-NBDLM+20 μM 2-TRLG,preserved in the cell
same,"uptake into healthy neuron, 2 minutes after cessation of administration",[1]; 100 μM 2-NBDLM+20 μM 2-TRLG,all cells take up
same,uptake into normal neurons (conclusion),[1]; 100 μM 2-NBDLM+20 μM 2-TRLG,taken up into normal mouse neurons
same,uptake into degraded cells during administration,[1]; [4],completely invading a cell
same,uptake into healthy neuron during administration,[1]; [4],taken up into a cell during administration
same,Maximum excited wavelength,[2],472 nm
same,Maximum fluorescence wavelength,[2],539 nm
"O=[N+]([O-])c1ccc(NC2C(O)OC(CO)[C@@H](O)[C@@H]2O)c2nonc12 (stereo partly drawn) [2-NBDG, 2-[N-(7-nitrobenz-2-oxa-1,3-diazole-4-yl)amino]-2-deoxy-D-glucose, reference compound]","fluorescence values at tumor-transplanted part (Tumor) versus normal tissue (BG), FIG. 3","tumor cells (C6 glioma); 400 nmol i.v., temporal change over 45 minutes, same result in 6 examples","fluorescence values at normal tissue (red square, BG) are larger than at the tumor-transplanted part"
same,time from which accumulations at the tumor cell-transplanted part were recognized,tumor cells (C6 glioma); 400 nmol/100 μL from the tail vein,around 5 minutes after administration
same,contrast between tumor-transplanted part and normal tissue (adipocyte-rich dorsal part near neck),"tumor cells (C6 glioma); 400 nmol/100 μL from the tail vein, non-fasted mice",poor contrast; also recorded: not sufficient
same,uptake/accumulation in normal tissue,"tumor cells (C6 glioma); 400 nmol/100 μL from the tail vein, normal tissue (fat tissue on the back, between back bones, muscle)",Intense accumulations
same,effect of GLUT inhibitor Cytochalasin B on uptake into MIN6 cells,"[3]; 37° C., Cytochalasin B (10 µM, CB)",significant decrease
same,uptake into MIN6 cells in buffer containing Na+ versus no Na+ ion (SGLT),"[3]; 37° C., Na(−) buffer, choline substituted",no significant difference
same,effect of Phloretin on uptake into MIN6 cells,"[3]; Phloretin (150 μM, PHT)",underwent inhibition of the uptake
"O=[N+]([O-])c1ccc(NC2C(O)OC(CF)[C@H](O)C2O)c2nonc12 (stereo partly drawn) [6-F-2-NBDLG, 2,6-Dideoxy-6-fluoro-2-[N-(7-nitrobenz-2-oxa-1,3-diazol-4-yl)amino]-L-glucopyranose]",Maximum excited wavelength,[2],472 nm
same,Maximum fluorescence wavelength,[2],538 nm
CN(C)S(=O)(=O)c1ccc(N[C@H](C=O)[C@H](O)[C@@H](O)[C@@H](O)CO)c2nonc12 [2-DBDLG],Maximum fluorescence wavelength,[2],570 nm
